Laboratory results taken from PMC3243694, “Integrated Dataset of Screening Hits against Multiple Neglected Disease Pathogens” (PLoS Neglected Tropical Diseases, 2011).
Converted amounts (≈) assume the structure as drawn.

Key:
[1] = test system: Schistosoma mansoni adult worms; assay: Anti-Schistosoma activity assay (adult worm motility); type: cell-based; conditions: S. mansoni adult worms; 12.5 µM (method: 10 µg/ml or 12.5 µM)
Experimental: (§1) The compound set was tested against the following parasites: intra-erythrocytic forms in human red blood cells of P. falciparum K1 strain (malaria), [16], [32], [33], [35], bloodstream forms of T. brucei Squib 427 strain (human African trypanosomiasis, HAT), [31], [32], [34], intracellular amastigotes of T. cruzi Tulahuen CL2, beta- galactosidase strain (Chagas' Disease), [32]–[35], intracellular amastigotes of L. infantum MHOM/MA(BE)/67 (leishmaniasis), [32]–[36], larval and/or adult worms of S. mansoni Puerto Rican strain (schistosomiasis), [31], [37], microfilariae of B. malayi (lymphatic filariasis), [30] and microfilariae of O. ochengi or O. lienalis (onchocerciasis), [30]. It should be noted that the human pathogen for onchocerciasis is Onchocerca volvulus, but due to lack of a suitable in vitro assay or animal models for this pathogen, O. ochengi and lienalis, which are both animal pathogens, are used in the primary and secondary assays, [30].
A subset of 9478 of the 10,000 compound collection was tested against the Puerto Rican strain of S. mansoni. 6144 of these were tested in a primary larval assay followed by the ex-vivo adult secondary screen. The remainder was screened only in the adult assay. […] The 65 compounds were sorted by chemical attractiveness, potency against adult schistosomes in culture, selectivity against other parasites, and toxicity to mammalian cells in culture. Based on this analysis, 5 series encompassing 13 compounds were chosen for advancement through the African Network for Drug and Diagnostic Innovation (ANDI) and other PDPs. Representative structures [structures # 13, 27, 28] are shown (Table S1). These compounds are unburdened by obvious toxic moieties, have acceptable compliance with the Lipinski rules, are selectively active against schistosomes and are not overtly toxic to mammalian cells. It has unfortunately not been possible to titrate all of these hits in culture; of about 50% for which such data are available, none has an IC50<2 µg/ml (which is the initial potency criteria).

[2] = test system: Trypanosoma brucei brucei Squib-427 strain; assay: Antitrypanosomal activity assay, T. brucei (resazurin); type: cell-based; conditions: T. brucei Squib 427 bloodstream forms, 72 h
Experimental: as §1

[3] = test system: Brugia malayi adult worms; assay: Anti-Brugia malayi adult worm motility assay; type: cell-based; conditions: B. malayi adult worms
From the text: In some cases, particularly for the antifilarial screens, a second whole organism test with adult stage parasites is included prior to animal evaluation. The decision to utilize microfilariae for primary screening was based on throughput and biological considerations. It is difficult to acquire enough adult filariae to enable screening more than 1000 compounds per year, a rate far lower than needed for timely evaluation of the available compounds. In light of this situation, and considering that we are targeting molecules that are active on both stages, microfilariae screening was adopted as a suitable filter to identify compounds with potential macrofilaricidal activity. As result of logistics issues attributed to lost shipments of some compounds, only 6160 molecules of the 10,000 compound set were tested, at a uniform molarity, against B. malayi, including 6063 against microfilariae and 756 against adult worms (these sets overlap). […] Greatest priority was given to compounds with activity against adult worms, as no macrofilaricide is available for use in control campaigns and the activity of ivermectin as a microfilaricidal agent is unlikely to be bettered in a new series. […] These were titrated to determine an IC50 value to support prioritization. Following cytotoxicity triage [structures # 1, 4, 6], eight compounds met the activity criterion for adult worms (i.e., 100% inhibition of adult worm motility), four of which were also active against microfilariae [structures # 14, 29, 30, 32]. […] Of these, the most interesting was TDR76699 [structure # 29]; this compound has very good activity against adult worms (IC50 = 0.1 µg/ml) and is also active against microfilariae (IC50 = 0.7 µg/ml). None of the other compounds tested against adult parasites had IC50 values ≤0.5 µg/ml, a threshold which would reduce concerns about specificity. However, a few series [structures # 31, 33, 34], appear interesting for future medicinal chemistry projects.

[4] = test system: MRC-5 cell line (diploid human embryonic lung fibroblast); assay: Cytotoxicity on MRC-5 cells; type: cell-based
From the text: [table] An important part of the screen is the evaluation of all compounds for cytotoxicity using the diploid human embryonic lung fibroblast MRC-5 cell line (Figure 2). Further evaluation of cytotoxicity also takes advantage of the assays for intracellular protozoan parasites, as in the case of L. infantum and T. cruzi, which include murine peritoneal macrophage host cells and MRC-5SV2 human lung fibroblast cells, respectively, in the culture system.

[5] = test system: Plasmodium falciparum K1 strain; assay: Anti-Plasmodium activity assay (Malstat); type: cell-based; conditions: P. falciparum K1, 72 h
Experimental: as §1

[6] = test system: Brugia malayi microfilariae; assay: Anti-Brugia malayi microfilariae motility assay; type: cell-based; conditions: B. malayi microfilariae
Experimental: as §1
As result of logistics issues attributed to lost shipments of some compounds, only 6160 molecules of the 10,000 compound set were tested, at a uniform molarity, against B. malayi, including 6063 against microfilariae and 756 against adult worms (these sets overlap). […] Greatest priority was given to compounds with activity against adult worms, as no macrofilaricide is available for use in control campaigns and the activity of ivermectin as a microfilaricidal agent is unlikely to be bettered in a new series. Of the test set, 53 compounds met the activity criterion for microfilariae (100% motility reduction) and an additional 58 inhibited adult worm motility ≥75% at 10 µM. These were titrated to determine an IC50 value to support prioritization. Following cytotoxicity triage [structures # 1, 4, 6], eight compounds met the activity criterion for adult worms (i.e., 100% inhibition of adult worm motility), four of which were also active against microfilariae [structures # 14, 29, 30, 32]. […] Of these, the most interesting was TDR76699 [structure # 29]; this compound has very good activity against adult worms (IC50 = 0.1 µg/ml) and is also active against microfilariae (IC50 = 0.7 µg/ml). None of the other compounds tested against adult parasites had IC50 values ≤0.5 µg/ml, a threshold which would reduce concerns about specificity. However, a few series [structures # 31, 33, 34], appear interesting for future medicinal chemistry projects.

[7] = test system: Trypanosoma cruzi, Tulahuen CL2 strain; assay: Antitrypanosomal activity assay, T. cruzi in MRC-5 cells; type: cell-based; conditions: T. cruzi Tulahuen CL2 in MRC-5 cells, 7 days
Experimental: as §1
171 of the 744 actives passed the initial criterion of IC50<1 µg/ml for T. cruzi Tulahuen CL2, beta galactosidase strain maintained on MRC-5SV2 cells in MEM medium (MRC-5 cell/parasite inoculum: 4.10^3 cells/well+4.10^4 parasites/well), supplemented with […] L-glutamine, 16.5 mM NaHCO3 and 5% heat inactivated fetal calf serum. […] Of these, 109 were eliminated [structures #1–6] for poor selectivity versus mammalian cells (SI<50) and an additional 11 due to undesirable chemical attributes. The remaining 51 compounds were sorted into 10 series (45 compounds) and 6 singletons [structures # 21, 22]. Two of these series with excellent potency against T. cruzi, limited activity against other protozoa and SI values >50 (not shown), have been transferred to DNDi for further evaluation.

[8] = test system: Onchocerca (lienalis or ochengi) microfilariae; assay: Anti-Onchocerca microfilariae motility assay; type: cell-based, Onchocerca lienalis or O. ochengi
Experimental: as §1
4240 compound s were screened against O. ochengi at the University of Buea in Cameroon, while a subset of […] compounds was successfully screened in UK by the Northwick Park Institute for Medical Research against O. lienalis, at a uniform molarity. […] After removing molecules that were toxic to mammalian cells (IC50<5 µg/ml), 292 molecules remained for further evaluation. […] From the latter sub-set, […] distinct chemical series and one singleton [structure # 35] were active against both microfilaria and adults. One series [structures # 2, 3] was deemed not interesting due to lack of selectivity against mammalian cells. The remaining series is being transferred to ANDI for further progression as part of a new collaboration.

Compound	SCH % Motility Reduction at 12.5µM [1]	HAT IC50 [2]	LF/AW % Motility Reduction at 12.5µM [3]	CYT IC50 [4]	MAL IC50 [5]	LF/MF % Motility Reduction at 12.5µM [6]	CHA IC50 [7]	ONC/MF % Motility Reduction at 12.5µM [8]	IC50 adult worms ([3]; titration)	IC50 microfilariae ([6]; titration)
O=C(COc1ccc(Cl)cc1Cl)Nc1nnc(C23CC4CC(CC(C4)C2)C3)s1 [TDR76660]	0%	>13.15 µg/mL	0%	>13.15 µg/mL	>13.15 µg/mL	100%	>13.15 µg/mL	0%	–	–
Cc1cccc(-n2nc3c(c2NC(=O)Nc2cccc(Cl)c2)CSC3)c1 [TDR76699]	25%	>11.55 µg/mL	100%	>11.55 µg/mL	>11.55 µg/mL	100%	9.48 µg/mL	33%	0.1 µg/mL (≈ 0.26 µM)	0.7 µg/mL (≈ 1.82 µM)
O=C(Nc1nc2c(F)cc(F)cc2s1)c1nc2ccccc2s1 [TDR77323]	0%	–	50%	>10.42 µg/mL	>10.42 µg/mL	100%	>10.42 µg/mL	–	–	–
COc1cccc2sc(Nc3nnc(-c4cccs4)o3)nc12 [TDR77585]	0%	0.35 µg/mL	50%	1.83 µg/mL	1.25 µg/mL	100%	0.31 µg/mL	–	–	–
CN(C)CCN(C(=O)c1cccc(N2C(=O)CCC2=O)c1)c1nc2ccc(Br)cc2s1 [TDR79337]	33%	0.36 µg/mL	0%	>16.14 µg/mL	1.45 µg/mL	–	4.94 µg/mL	0%	–	–
COc1ccc(SCC(=O)Nc2nc(-c3ccccn3)cs2)cc1 [TDR83845]	0%	0.35 µg/mL	–	>10.72 µg/mL	>10.72 µg/mL	0%	0.36 µg/mL	86%	–	–
CSc1ccc2nc(N(Cc3cccnc3)C(=O)c3ccc(C(C)(C)C)cc3)sc2c1 [TDR84420]	0%	>13.43 µg/mL	–	7.16 µg/mL	0.15 µg/mL	0%	0.56 µg/mL	25%	–	–
CS(=O)(=O)c1ccc2nc(N(Cc3cccnc3)C(=O)c3ccc4ccccc4c3)sc2c1 [TDR84431]	0%	>14.21 µg/mL	–	>14.21 µg/mL	>14.21 µg/mL	0%	0.23 µg/mL	0%	–	–
CSc1cccc(C(=O)N(Cc2cccnc2)c2nc3ccc(S(C)(=O)=O)cc3s2)c1 [TDR84433]	0%	>14.09 µg/mL	–	>14.09 µg/mL	8.28 µg/mL	0%	0.38 µg/mL	0%	–	–
O=C(Cc1csc(NC(=O)C2CCC(=O)N2)n1)NCc1ccccn1 (centres unmarked) [TDR84826]	100%	>10.78 µg/mL	–	>10.78 µg/mL	>10.78 µg/mL	20%	>10.78 µg/mL	50%	–	–
CC(C)(C)n1ncc2c(=O)n(CCC(=O)NCc3ccccc3Cl)cnc21 [TDR84851]	100%	>11.64 µg/mL	–	>11.64 µg/mL	>11.64 µg/mL	20%	>11.64 µg/mL	0%	–	–
O=S(=O)(c1cccnc1)N1CCN(c2ccc(-c3cccs3)nn2)CC1 [TDR85115]	0%	>11.6 µg/mL	–	>11.6 µg/mL	>11.6 µg/mL	50%	>11.6 µg/mL	0%	–	–
O=C(c1ccccc1)N1CCN(c2ccc(Nc3ccccn3)nn2)CC1 [TDR86082]	0%	>10.8 µg/mL	–	>10.8 µg/mL	>10.8 µg/mL	0%	>10.8 µg/mL	0%	–	–
O=S(=O)(c1cccc(F)c1)N1CCN(c2ccc(Nc3cccnc3)nn2)CC1 [TDR86129]	0%	>12.43 µg/mL	–	0.94 µg/mL	5.44 µg/mL	0%	>12.43 µg/mL	0%	–	–
